Laboratory results as given in ChEMBL document CHEMBL1147827, “A pyrimidine-pyrazolone nucleoside chimera with potent in vitro anti-orthopoxvirus activity” (Bioorg Med Chem Lett, 2006).
pEC50: −log10 of the molar value.

Tested on: Vaccinia virus
Experiment: Antiviral activity against Vaccinia virus Copenhagen in HFF cells assessed as reduction in cytopathogenicity
Format: functional, organism-based
Conditions: Orthopoxvirus vaccinia

Compound: CC(=O)OC[C@H]1O[C@@H](n2cc(/C=C3\C(=O)N(c4ccccc4)N=C3C)c(=O)[nH]c2=O)C[C@@H]1OC(C)=O
- pEC50: 4.49
